For assay [1], the target named is MAPK14 (human), Q16539 [p38(A157V) Mutant Enzyme Inhibition Assay]. Description: p38(A157V) Mutant Enzyme Inhibition Assay.
The target of assay [2] is MAPK14 (human), Q16539 [p38(M109A) Mutant Enzyme Inhibition Assay]. Description: p38(M109A) Mutant Enzyme Inhibition Assay.
In a further assay the target is MAPK14 (human) (UniProt Q16539). Description: p38 Enzyme Inhibition Assay.

pIC50: −log10 of the molar value.

MAPK14 (human), sequence (Q16539 whole entry, looked up): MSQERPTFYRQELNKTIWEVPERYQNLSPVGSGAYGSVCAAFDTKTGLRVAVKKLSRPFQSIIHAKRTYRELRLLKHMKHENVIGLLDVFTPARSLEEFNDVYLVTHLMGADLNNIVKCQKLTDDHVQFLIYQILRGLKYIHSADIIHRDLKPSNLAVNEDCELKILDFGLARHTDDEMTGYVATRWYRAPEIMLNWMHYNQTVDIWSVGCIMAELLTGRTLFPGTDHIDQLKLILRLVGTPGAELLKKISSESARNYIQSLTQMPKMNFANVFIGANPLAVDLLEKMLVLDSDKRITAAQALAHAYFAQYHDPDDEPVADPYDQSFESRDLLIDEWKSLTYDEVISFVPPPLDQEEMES
MAPK14 (human), Q16539 [p38(A157V) Mutant Enzyme Inhibition Assay], sequence (Q16539 whole entry, looked up, stated change not applied): as the sequence (Q16539 whole entry, looked up) above
MAPK14 (human), Q16539 [p38(M109A) Mutant Enzyme Inhibition Assay], sequence (Q16539 whole entry, looked up, stated change not applied): as the sequence (Q16539 whole entry, looked up) above

As to `C[C@H](Nc1cc(-c2nc(C3CCCNC3)n(C)c2-c2cccc(C(F)(F)F)c2)ccn1)c1ccccc1` (some centres not stated), the results for the negative-log IC50 (pIC50) (in assay [1]; in assay [2]; against MAPK14 (human)) were 7.89, 6.15 and 7.03, respectively.
The corresponding values for `C[S+]([O-])c1ccc(-c2cc(-c3ccc(F)c(F)c3)c(-c3ccncc3)[nH]2)cc1` (configuration not stated) are 6.35, 7.43 and 7.92.
As to `C[S+]([O-])c1ccc(-c2cc(-c3ccc(F)cc3)c(-c3ccncc3)[nH]2)cc1` (configuration not stated), the negative-log IC50 (pIC50) is 7.24 in assay [1], 8.12 in assay [2] and 8.40 at MAPK14 (human).
For `Cn1c(C2CCNCC2)nc(-c2cccc(C(F)(F)F)c2)c1-c1ccncc1`, in that order: > 9.30, 7.34 and 8.15.

The values are drawn from the Kinase Knowledgebase extract (Sharma et al. 2016).
